Here are results for 1 sequence from paper PMC9992173, “Mapping of the extracellular RBP4 ligand binding domain on the RBPR2 receptor for Vitamin A transport” (Frontiers in Cell and Developmental Biology, 2023).

This experiment has as its target T1, mouse RBP4 (Mus musculus, UniProt Q00724).
T1 construct: 6XHis; made in house; host or cells: E. coli
Kind of experiment: Surface plasmon resonance (SPR) binding of SYL-motif peptides to immobilized RBP4. As to conditions: SPR affinity fit, Figure 6B; repeated in the discussion as calculated binding affinity; read-out: Best-fit values Kd. As for the experimental part: Purified RBP4 protein with >90% purity and 0.56 mg/mL concentration was immobilized on Biacore Sensor Chip CM5 (ITDD Biacore S200 Surface Plasmon Resonance instrument at University of Minnesota). The two-flow cell surface activated for using one as blank and other as test. Using Amine Coupling Kit (Cat. No. BR100050; Cytiva, Marlborough, MA, US) 1-ethyl-3-(3-dimethylaminopropyl) carbodiimide hydrochloride (EDC), N-hydroxysuccinimide (NHS), after surface activation, the purified RBP4 with immobilization buffer 10 mM Sodium acetate, pH 5.0, was immobilized with target of 1,200 Response Unit (RU) for achieving Rmax of 30RU in kinetic study. The reaction stopped and washed with Ethanolamine. The system was re-primed with running buffer PBST (phosphate-buffered saline solution with a 0.05% Tween20 detergent solution). The kinetic assay performed on the two flow cells, the blank was used as reference cell and the active cell with RBP4 was used for the binding study. […] The program was run and non-specific binding on the reference cell subtracted bulk refractive index from the active sensorgram and analyzed for the association, dissociation and stabilization of the reads. […]

No end group written: not given here.

What is called Kd is the equilibrium constant for the complex coming apart. With “HVRDKLDMFEDKLESYLTHMNETGTLTPIILQVKELISVTKG [mouse RBPR2]”, the Kd is 25.4 µM.
